Source: US9249115B2, “N,N1 substituted piperazines having combined antiaggregant, anticoagulant and vasodilatory activity, and method for producing same” (Vertex Closed Joint Stock Company, priority 2011, dated 2016)

Tests used:
mesentery venules = assay: Vasodilator properties, microcirculatory vessel responsiveness to noradrenalin, venules; format: in vivo, Wistar male rats
Method: (§1) Vasodilator properties of N,N′-substituted piperazines were evaluated according to their influence on microcirculatory vessel responsiveness.
(§2) The studies were done on Wistar male rats with mass of 300±30 g (laboratory animals nursery “Rappolovo”, RAMS). The animals were kept with unlimited food (standard ration for laboratory rats K-120 by <<Inform-korm>>, Russia) and water allowance.
(§3) The solutions of N,N′-substituted piperazines and physiological (control) solution were introduced via bolus injection within 1 min into caudal vein of non-anaesthetized animals according to the dosage of 5.0 ml per 1 kg. Immediately after the introduction the animals were put in separate standard cages for observation.
(§4) In 30 min after the injection the animals were anaesthetized (thiopental sodium, 60 mg/kg intraperitoneally). The loop of small intestine adjoined to mesoappendix was retrieved through inferomedian incision. To study microcirculation in mesentery venules and arterioles in transmitted light the rat was placed on thermostated microscope objective table. The application of noradrenalin solution (Aguettant, 2 mg/ml, Laboratoire AGUETTANT, France) was done directly on the mesentery (Furness J. B., Marshall J. M., 1974; Yantareva L. I., 2004).
(§5) The study of microcirculatory vessels was done with LUMAM I1 microscope (LOMO, Russia). The recording of video data was done with the camera (Optics and Electronics ISTA Ltd) attached to a personal computer. The processing of data was done with Video-Test 4.0 software (ISTA Ltd., Russia). The diameter of the vessel wall (D, m) before and after the application of noradrenalin and the starting time of blood flow slowdown induced by noradrenalin were measured (the measurements were done for 1 min after the application).

[1] = tested on: Ristocetin-induced thrombocyte aggregation; assay: Ristocetin-induced thrombocyte aggregation, donor human thrombocyte enriched plasm; format: cell-based; conditions: ristocetin inductor; for MA (60 c), %: amplitude at 60 s
Method: The study of antiaggregant and anticoagulant properties of N,N′-substituted piperazines on the sample of donor human blood. The blood was collected by donor ulnar vein punction with dry sharp needle without syringe. The administration of drugs that influence on thrombocyte function was cancelled in 7÷10 days before the experiment.
In graduated plastic centrifuge tube 1 ml of 3.8% basic trisodium citrate solution with pH=7.4 was placed. The ulnar vein was punctuated, the freely effluent blood was collected up to 10 ml mark, the mixture was instantly stirred to prevent air bubbles appearance. The collected and stabilized blood was split in two 5 ml portions in two tubes.
To obtain thrombocyte enriched plasm the stabilized blood was spinned at 1000 rpm (150 g) for 8 min at room temperature. The repeated spinning of the blood at 3200 rpm (2300 g) for 20 min at 22° C. yielded thrombocyte depleted plasm.
The study of anticoagulant activity was done within 2 h after thrombocyte enriched plasm obtaining. The plasm was normalized to achieve thrombocyte concentration of 200-250×10^9/L by addition of thrombocyte-free plasm. The concentration of thrombocytes was measured on SOLAR AR 2110 analyzer.
Antiaggregant properties of N,N′-substituted piperazines were evaluated by their influence on thrombocyte aggregation in tests with ADP-, collagen- and ristocetin-induced aggregation. To dissolve N,N′-substituted piperazines and to dilute reagents Tris-HCl-buffer with pH=7.4 was used.
As the general characteristic of thrombocyte aggregation activity the maximum amplitude (MA) of aggregation was taken on. That is the peak value of transmittance coefficient of the sample after aggregation agent introduction expressed in % relative to the transmittance of thrombocyte-free plasm. The response was registered on ascending linear segment of aggregation curve for 16 s.
The measurements were done using 4-channel CHRONO-LOG 490-4D analyzer (CHRONO-LOG, USA). The temperature in the cell was 37° C., the spinning speed of magnetic stirrer was 1200 rpm.
In a cuvette 0.5 ml of N,N′-substituted piperazine solution was placed, then 0.4 ml of normalized thrombocyte plasm was added. The mixture was stirred and incubated at 37° C. for 5 min. The cuvette was placed in aggregometer, then 0.05 ml of aggregation inductor solution was added (ADP or collagen or ristocetin). Thrombocyte aggregation was measured for 3 min.
To study ristocetin-induced thrombocyte aggregation CHRONO-PAR RISTOCETIN reagent (CHRONO-LOG, USA) was diluted with buffer solution until ristocetin concentration reached 12 mg/ml. Thrombocyte aggregation amplitude was measured in 60 s after the beginning of the reaction.

mesentery arterioles = assay: Vasodilator properties, microcirculatory vessel responsiveness to noradrenalin, arterioles; format: in vivo, Wistar male rats
Method: as §1, §2, §3, §4, §5

[2] = 0.01 mmol/kg, noradrenalin 10^−6 g/ml
[3] = 0.025 mmol/kg, noradrenalin 10^−7 g/ml

**Q.** What does the source list for `O=C(O)/C=C/c1ccc(Cn2ccnc2)cc1` [Ozagrel, reference compound]?
**A.** % of vessel constriction (mesentery venules; [2]): 44%; Blood flow slowdown, Latent period of slowdown (mesentery venules; [2]): 32 ± 4 s; % of vessel constriction (mesentery venules; [3]): 27%; Blood flow slowdown, Latent period of slowdown, s (mesentery venules; [3]): No slowdown; (MAx-MA0): MA0 * 100% (Ozagrel: (MA0-MAx): MA0 * 100%) ([1]; 1.25 mmol/L): 8.0%; MA (60 c), % ([1]; 1.25 mmol/L): 58.6 ± 9.1%; (MAx-MA0): MA0 * 100% (Ozagrel: (MA0-MAx): MA0 * 100%) ([1]; 2.5 mmol/L): 28.4%; MA (60 c), % ([1]; 2.5 mmol/L): 45.6 ± 9.5%; (MAx-MA0): MA0 * 100% (Ozagrel: (MA0-MAx): MA0 * 100%) ([1]; 5.0 mmol/L): 44.1%; MA (60 c), % ([1]; 5.0 mmol/L): 35.6 ± 8.5%; % of vessel constriction (mesentery arterioles; [2]): 80%; Blood flow slowdown, Latent period of slowdown (mesentery arterioles; [2]): 27 ± 6 s; % of vessel constriction (mesentery arterioles; [3]): 27%; Blood flow slowdown, Latent period of slowdown, s (mesentery arterioles; [3]): No slowdown
